The source of these data is patent US20240425496A1, “AZETIDINYL PYRIMIDINES AND USES THEREOF” (Aerie Pharmaceuticals, Inc., priority 2021, published 2024).

Structures are written as SMILES. Where only a bound is given, the exact number is not on record here.

One test deals with TYK2 (Homo sapiens (Human), UniProt P29597). Description: JAK kinase assay (KINASE-GLO luminescent), TYK2 enzyme. It is filed as biochemical. The settings on record: TYK2 enzyme 10 nM, Abl peptide substrate. The procedure: (§1) All compounds were initially prepared as 10 mM stocks in anhydrous dimethylsulfoxide (DMSO). […] Test compounds were then serially diluted 1:5 in DMSO for an 11-point concentration response and further diluted in the assay buffer bringing all compound concentrations to a final range of 100 μM to 10 μM in 2.5% DMSO. […] The reaction was initiated by the addition of 10 μL of 4× stock solution ATP (2 μM). Reactions were thoroughly mixed manually, covered, and allowed to incubate at room temperature for 75 min. Protein kinase activity was quantitated using Promega's KINASE-GLO™ luminescent Kinase Assay Kit according to the manufacturer's directions. ATP concentrations remaining in Test wells following the termination of the enzymatic reaction were compared against control wells containing equivalent amounts of DMSO containing no inhibitor (CTRL). […] Percent of Control (POC) values were determined for each concentration of compound tested according to the equation: […]
Chain of TYK2 (P29597 whole entry, species assumed): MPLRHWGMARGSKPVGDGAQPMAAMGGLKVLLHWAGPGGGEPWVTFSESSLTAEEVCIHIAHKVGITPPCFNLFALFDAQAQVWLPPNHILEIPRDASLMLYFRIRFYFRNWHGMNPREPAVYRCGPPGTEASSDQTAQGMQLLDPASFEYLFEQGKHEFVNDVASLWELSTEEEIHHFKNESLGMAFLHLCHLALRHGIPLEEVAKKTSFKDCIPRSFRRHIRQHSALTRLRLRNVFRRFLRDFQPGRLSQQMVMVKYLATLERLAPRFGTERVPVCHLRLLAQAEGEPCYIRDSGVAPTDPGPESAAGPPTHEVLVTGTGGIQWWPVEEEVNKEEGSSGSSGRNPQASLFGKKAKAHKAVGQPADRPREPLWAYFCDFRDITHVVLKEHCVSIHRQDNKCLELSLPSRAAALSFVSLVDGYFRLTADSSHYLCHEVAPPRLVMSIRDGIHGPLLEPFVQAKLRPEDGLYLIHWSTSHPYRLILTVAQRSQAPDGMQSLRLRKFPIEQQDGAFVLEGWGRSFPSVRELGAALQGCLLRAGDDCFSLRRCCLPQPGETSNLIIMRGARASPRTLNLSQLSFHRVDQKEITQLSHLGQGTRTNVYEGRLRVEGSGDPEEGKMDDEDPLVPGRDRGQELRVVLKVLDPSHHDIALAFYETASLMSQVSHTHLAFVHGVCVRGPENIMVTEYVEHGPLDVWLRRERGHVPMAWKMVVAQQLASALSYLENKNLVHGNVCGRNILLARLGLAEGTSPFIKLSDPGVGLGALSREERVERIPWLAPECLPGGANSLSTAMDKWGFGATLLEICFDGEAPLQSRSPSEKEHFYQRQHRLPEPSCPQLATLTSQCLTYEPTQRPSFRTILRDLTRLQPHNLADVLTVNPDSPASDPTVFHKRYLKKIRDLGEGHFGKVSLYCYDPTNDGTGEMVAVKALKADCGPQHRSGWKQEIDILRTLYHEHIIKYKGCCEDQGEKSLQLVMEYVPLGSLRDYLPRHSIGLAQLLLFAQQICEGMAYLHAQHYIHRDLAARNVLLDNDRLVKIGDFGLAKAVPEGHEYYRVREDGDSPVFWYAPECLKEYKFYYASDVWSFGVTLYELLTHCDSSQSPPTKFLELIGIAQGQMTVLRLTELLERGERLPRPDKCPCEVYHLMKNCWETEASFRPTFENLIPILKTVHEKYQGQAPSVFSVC
(§2) IC50 values were calculated using the following 4-parameter logistic curve-fitting algorithm:
(§3) Compounds were prepared in the exact same manner as described in the ROCK Kinase Assay with the exception to the substrate and enzyme. […] All other steps and solutions remain identical to the ROCK Kinase Assay above.
In general terms: In Kinase-Glo more light means more ATP remaining.

In the next test the target is JAK1 (Homo sapiens (Human), UniProt P23458). Kind of test: JAK kinase assay (KINASE-GLO luminescent), JAK1 enzyme. Type of test: biochemical. The following applies: JAK1 enzyme 10 nM, Abl peptide substrate. The procedure: as §1, §2, §3
Chain of JAK1 (P23458 whole entry, species assumed): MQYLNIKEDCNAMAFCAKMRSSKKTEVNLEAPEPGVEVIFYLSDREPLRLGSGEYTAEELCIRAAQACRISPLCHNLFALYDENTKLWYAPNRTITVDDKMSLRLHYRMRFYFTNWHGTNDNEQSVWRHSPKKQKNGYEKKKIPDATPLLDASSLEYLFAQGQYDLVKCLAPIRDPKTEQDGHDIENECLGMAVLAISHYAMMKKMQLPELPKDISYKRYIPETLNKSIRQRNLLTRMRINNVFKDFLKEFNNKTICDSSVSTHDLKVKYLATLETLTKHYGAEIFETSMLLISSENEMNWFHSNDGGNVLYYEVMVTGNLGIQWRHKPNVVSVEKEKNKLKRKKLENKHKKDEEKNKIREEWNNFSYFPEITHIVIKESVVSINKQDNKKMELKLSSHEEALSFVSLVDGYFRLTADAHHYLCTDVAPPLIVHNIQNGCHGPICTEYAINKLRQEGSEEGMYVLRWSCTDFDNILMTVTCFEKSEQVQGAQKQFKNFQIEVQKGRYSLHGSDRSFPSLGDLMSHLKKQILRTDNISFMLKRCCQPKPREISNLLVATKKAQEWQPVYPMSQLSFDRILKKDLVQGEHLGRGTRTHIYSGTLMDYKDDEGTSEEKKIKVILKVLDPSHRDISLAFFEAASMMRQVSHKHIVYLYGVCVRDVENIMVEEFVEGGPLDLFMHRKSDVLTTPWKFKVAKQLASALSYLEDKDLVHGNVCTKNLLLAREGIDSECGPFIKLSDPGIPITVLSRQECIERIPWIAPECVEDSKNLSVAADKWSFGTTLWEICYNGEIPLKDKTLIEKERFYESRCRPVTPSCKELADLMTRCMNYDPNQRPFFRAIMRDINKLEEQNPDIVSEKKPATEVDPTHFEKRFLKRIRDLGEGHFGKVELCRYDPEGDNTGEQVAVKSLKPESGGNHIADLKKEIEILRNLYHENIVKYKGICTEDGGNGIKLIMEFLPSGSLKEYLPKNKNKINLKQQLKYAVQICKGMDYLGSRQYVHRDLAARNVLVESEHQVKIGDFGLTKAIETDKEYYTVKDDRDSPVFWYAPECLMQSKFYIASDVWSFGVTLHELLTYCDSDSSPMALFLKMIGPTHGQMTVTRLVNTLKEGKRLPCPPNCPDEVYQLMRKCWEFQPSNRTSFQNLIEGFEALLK

Consider `Cc1cc(Nc2ncc(C)c(N3CC(CC#N)(N4CCN5CCC[C@@H]5C4)C3)n2)sn1` [E61a], for which the concentration for half-maximal inhibition (IC50) against TYK2 and on JAK1 was under 0.05 µM throughout.
Turning to `Cc1cc(Nc2ncc(C)c(N3CC(CC#N)(N4CCN5CCC[C@H]5C4)C3)n2)sn1` [E62a], the IC50 at TYK2 and against JAK1 was under 0.05 µM in each case.
For the compound `C#CCC1(O)CN(c2nc(Nc3cc(C)ns3)ncc2C)C1` [E63a], the IC50 – broadly, the midpoint of a concentration-inhibition curve – against TYK2 is under 0.05 µM; at JAK1, under 0.1 µM.
For `Cc1cc(Nc2ncc(C)c(N3CC(CC#N)(N4CCN(C5CCC5)CC4)C3)n2)sn1` [E64a], in that order: under 0.01 µM and under 0.01 µM.
For `CCOC(=O)CC1(N2CCCCC2)CN(c2nc(Nc3cc(C)ns3)ncc2C)C1` [E65a], in that order: under 0.05 µM and under 1 µM.
The matching figures for `Cc1cc(Nc2ncc(C)c(N3CC(CCO)(N4CCCCC4)C3)n2)sn1` [E66a]: under 0.01 µM and under 0.05 µM.
As for `Cc1cc(Nc2ncc(C)c(N3CC(CC#N)(N4CCN5C[C@H](F)C[C@H]5C4)C3)n2)sn1` [E67a], the IC50 on TYK2 and against JAK1 was under 0.01 µM in each case.
As for `Cc1cc(Nc2ncc(C)c(N3CC(CC#N)(NCC4CN(C)C4)C3)n2)sn1` [E68a], the IC50 on TYK2 and against JAK1 was under 0.5 µM each time.
As for `COC1CCN(C2(CC#N)CN(c3nc(Nc4cc(C)ns4)ncc3C)C2)CC1` [E69a], the IC50 against TYK2 and against JAK1 was under 0.01 µM each time.
On to `Cc1cc(Nc2ncc(C)c(N3CC(CC#N)(N4CCN5C[C@@H](F)C[C@@H]5C4)C3)n2)sn1` [E70a], for which the IC50 was under 0.01 µM against TYK2 and under 0.02 µM against JAK1.
For `CO[C@H]1C[C@H]2CN(C3(CC#N)CN(c4nc(Nc5cc(C)ns5)ncc4C)C3)CCN2C1` [E71a], in that order: under 0.01 µM and under 0.01 µM.
The matching figures for `CO[C@@H]1C[C@H]2CN(C3(CC#N)CN(c4nc(Nc5cc(C)ns5)ncc4C)C3)CCN2C1` [E72a]: under 0.01 µM and under 0.01 µM.
For the compound `Cc1cc(Nc2ncc(C)c(N3CC(CC#N)(N4CCN5CCN(C)CC5C4)C3)n2)sn1` (stereo not drawn) [E73a], the IC50 on TYK2 and against JAK1 was under 0.1 µM in each case.
As to `Cc1cc(Nc2ncc(F)c(N3CC(CC#N)(N4CCCCC4)C3)n2)sn1` [E74a], the IC50 is under 0.02 µM against TYK2 and under 0.5 µM on JAK1.
For `COCCN1CCN(C2(CC#N)CN(c3nc(Nc4cc(C)ns4)ncc3C)C2)CC1` [E75], in that order: under 0.01 µM and under 0.01 µM.
For `Cc1cc(Nc2ncc(C)c(N3CC(CC#N)(N4CCN5C[C@H](F)C[C@@H]5C4)C3)n2)sn1` [E75a], in that order: under 0.01 µM and under 0.05 µM.
As to `Cc1cc(Nc2ncc(C)c(N3CC(CC#N)(N4CCN5CC6(CC6)C[C@H]5C4)C3)n2)sn1` [E76a], the IC50 on TYK2 and on JAK1 was under 0.01 µM each time.
Turning to `Cc1cc(Nc2ncc(C)c(N3CC(CC#N)(N4CCN5CCOC[C@@H]5C4)C3)n2)sn1` [E77a], the results for the concentration for half-maximal inhibition (IC50) against TYK2 and at JAK1 were under 0.01 µM and under 0.05 µM, respectively.
Consider `Cc1cc(Nc2ncc(C)c(N3CC(CC#N)(N4CCN5CCOC[C@H]5C4)C3)n2)sn1` [E78a], for which the IC50 against TYK2 and on JAK1 was under 0.01 µM each time.
In the case of `Cc1cnc(Nc2ccc(C3(O)COC3)cc2)nc1N1CC(CC#N)(N2CCN(C)CC2)C1` [E79a], the results for the IC50 at TYK2 and on JAK1 were under 0.01 µM and under 0.05 µM, respectively.
The matching figures for `Cc1cnc(Nc2cnn(C)c2)nc1N1CC(CC#N)(N2CCN(C)CC2)C1` [E80, 2-(1-(5-methyl-2-((1-methyl-1H-pyrazol-4-yl)amino)pyrimidin-4-yl)-3-(4-methylpiperazin-1-yl)azetidin-3-yl)acetonitrile]: under 0.02 µM and under 0.02 µM.
The matching figures for `Cc1cc(Nc2ncc(C)c(N3CC(CC#N)(N4CCN5CCCC[C@H]5C4)C3)n2)sn1` [E80a]: under 0.01 µM and under 0.01 µM.
The matching figures for `Cc1cnc(Nc2cnn(C)c2)nc1N1CC(CC#N)(N2CCC3(CC2)CC3(F)F)C1` [E81]: under 0.01 µM and under 0.01 µM.
As for `Cc1cc(Nc2ncc(C)c(N3CC(CC#N)(N4CCN5CC(F)(F)C[C@H]5C4)C3)n2)sn1` [E81a], the IC50 against TYK2 and against JAK1 was under 0.02 µM each time.
Consider `Cc1cnc(Nc2cnn(C)c2)nc1N1CC2(C1)CC2(F)F` [E82], for which the IC50 against TYK2 and against JAK1 was under 0.02 µM in each case.
With `Cc1cc(Nc2nccc(N3CC(CC#N)(N4CCN5CC6(CC6)C[C@H]5C4)C3)n2)sn1` [E82a], the IC50 is under 0.02 µM on TYK2 and under 0.05 µM at JAK1.
The matching figures for `Cc1cc(Nc2ncc(C)c(N3CC(CC#N)(N4CCN5CCC[C@]5(C)C4)C3)n2)sn1` [E83a]: under 0.05 µM and under 0.1 µM.
The matching figures for `Cc1cc(Nc2ncc(C)c(N3CC(CC#N)(N4CCN5CCC[C@@]5(C)C4)C3)n2)sn1` [E84a]: under 0.01 µM and under 0.01 µM.
The matching figures for `Cc1cc(Nc2ncc(C)c(N3CC(CC#N)(N4CCN5CCCC[C@@H]5C4)C3)n2)sn1` [E85a]: under 0.01 µM and under 0.05 µM.
With `Cc1cc(Nc2ncc(C)c(N3CC(CC#N)(N4CCN5CC6CC5(C6)C4)C3)n2)sn1` [E86a], the IC50 against TYK2 is under 0.02 µM; at JAK1 it was under 0.1 µM.
The matching figures for `Cc1cc(Nc2ncc(C)c(N3CC(CC#N)(N4CCCN5CCC[C@H]5C4)C3)n2)sn1` [E87a]: under 0.01 µM and under 0.01 µM.
In the case of `Cc1cc(Nc2ncc(C)c(N3CC(CC#N)(N4CC5(C4)CC5(F)F)C3)n2)sn1` [E88a], the IC50 at TYK2 and against JAK1 was under 0.01 µM throughout.
As for `Cc1cc(Nc2ncc(C)c(N3CC(CC#N)(N4CCN5CCC5C4)C3)n2)sn1` (stereo not drawn) [E89a], the IC50 was under 0.05 µM at TYK2 and under 0.1 µM against JAK1.
For `Cc1cc(Nc2ncc(C)c(N3CC(CC#N)(N4CCn5cccc5C4)C3)n2)sn1` [E90a], in that order: under 0.01 µM and under 0.01 µM.
For `Cc1cc(Nc2ncc(C)c(N3CC(CC#N)(N4CCn5c(cnc5C)C4)C3)n2)sn1` [E91a], in that order: under 0.01 µM and under 0.01 µM.
As to `Cc1cc(Nc2ncc(C)c(N3CC(CC#N)(N4C[C@@H]5OCCO[C@@H]5C4)C3)n2)sn1` [E92a], the IC50 on TYK2 and on JAK1 was under 0.01 µM in each case.
Regarding `Cc1cc(Nc2ncc(C)c(N3CC(CC#N)(N4CCn5cncc5C4)C3)n2)sn1` [E93a], the IC50 against TYK2 and on JAK1 was under 0.01 µM throughout.
For the compound `Cc1cc(Nc2ncc(C)c(N3CC(CC#N)(N4CCN(C)C5CC54)C3)n2)sn1` (stereo not drawn) [E94a], the IC50 at TYK2 and at JAK1 was under 0.01 µM throughout.
As to `Cc1cc(Nc2ncc(C)c(N3CC(CC#N)(N4CC5(CC5)C4)C3)n2)sn1` [E95a], the half-maximal inhibitory concentration (IC50) against TYK2 was under 0.01 µM; on JAK1, under 0.05 µM.
The matching figures for `CCS(=O)(=O)C1CN(C2(CC#N)CN(c3nc(Nc4cc(C)ns4)ncc3C)C2)C1` [E96a]: under 0.05 µM and under 0.1 µM.
In the case of `Cc1cc(Nc2nccc(N3CC(CC#N)(N4CCN5C[C@H](F)C[C@H]5C4)C3)n2)sn1` [E97a], the IC50 is under 0.01 µM on TYK2 and under 0.05 µM at JAK1.
The matching figures for `Cc1cc(Nc2ncc(C)c(N3CC(CC#N)(N4CC5OCCN(C)C5C4)C3)n2)sn1` (stereo not drawn) [E98a]: under 0.01 µM and under 0.05 µM.
For `Cc1cc(Nc2ncc(C)c(N3CC(CC#N)(OC4CC5(CC5)C4)C3)n2)sn1` [E99a], in that order: under 0.01 µM and under 0.01 µM.
For `COC(=O)CC1(N2CCN3CCC[C@H]3C2)CN(c2nc(Nc3cc(C)ns3)ncc2C)C1` [E100a], in that order: under 0.01 µM and under 0.01 µM.
Regarding `COc1cnc(Nc2cc(C)ns2)nc1N1CC(CC#N)(N2CCN3C[C@H](F)C[C@H]3C2)C1` [E101a], the half-inhibitory concentration (IC50) at TYK2 and against JAK1 was under 0.01 µM each time.
`Cc1cc(Nc2ncc(C3CC3)c(N3CC(CC#N)(N4CCN5C[C@H](F)C[C@H]5C4)C3)n2)sn1` [E102a]: the 50% inhibitory concentration (IC50) at TYK2 and at JAK1 was under 0.01 µM each time.
Turning to `Cc1cc(Nc2ncc(C)c(N3CC(CCO)(N4CCN5CCC[C@H]5C4)C3)n2)sn1` [E103a], the IC50 on TYK2 and at JAK1 was under 0.01 µM throughout.
`Cc1cc(Nc2ncc(C)c(N3CC(CC#N)(N4C[C@H]5CN(C)C[C@H]5C4)C3)n2)sn1` [E104a]: the IC50 at TYK2 and on JAK1 was under 0.1 µM throughout.
For `Cc1cc(Nc2ncc(C)c(N3CC(CC#N)(N4CC5CN(C)CC5C4)C3)n2)sn1` (stereo not drawn) [E105a], the IC50 against TYK2 is under 0.05 µM; on JAK1, under 0.1 µM.
The matching figures for `Cc1cc(Nc2ncc(C)c(N3CC(CC#N)(OC4CC5(C4)CC5(F)F)C3)n2)sn1` (stereo not drawn) [E106a]: under 0.01 µM and under 0.01 µM.
For `Cc1cc(Nc2ncc(C)c(N3CC(C4CC4)(N4CCCCC4)C3)n2)sn1` [E107a], in that order: under 0.05 µM and under 0.1 µM.
The matching figures for `Cc1cc(Nc2ncc(C)c(N3CC(C4CC4)C3)n2)sn1` [E108a]: under 0.01 µM and under 0.05 µM.
As to `Cc1cc(Nc2ncc(C)c(N3CC(CC4CC4)C3)n2)sn1` [E109a], the IC50 on TYK2 is under 0.01 µM; against JAK1, under 0.05 µM.
Turning to `Cc1cc(Nc2ncc(C)c(N3CC(N4CCN5C[C@H](F)C[C@H]5C4)C3)n2)sn1` [E110a], the figures for the IC50 against TYK2 and at JAK1 were under 0.01 µM and under 0.05 µM, respectively.
